Data as given in patent US20230201151A1, “FORMULATIONS AND METHODS FOR TREATING ACUTE RESPIRATORY DISTRESS SYNDROME, ASTHMA, OR ALLERGIC RHINITIS” (UNIVERSITY OF FLORIDA RESEARCH FOUNDATION, INC., priority 2020, published 2023).

How the values were obtained:
Type in all cases: cell-based, human
HBECs = assay: TEER (epithelial barrier function) in differentiated HBECs, Ussing chamber; settings: for TEER, normalized to control: day 16; for cytokine concentration that increased TEER / epithelial resistance: 7 days incubation
Procedure: (§1) High individual variation in benzamil-sensitive current and TEER in HBECs. In an Ussing chamber-based experimental design, basal short-circuit current (Isc) and transepithelial electrical resistance (TEER) were recorded in differentiated HBECs from two lung donors that were grown on snapwells at an air-liquid interface for 28 to 35 days. Benzamil, a potent ENaC blocker was used to determine ENaC activity by calculating benzamil-sensitive Isc from changes in Isc that occur 15 minutes after adding 6 μM benzamil to the apical side of cells. […] Therefore, normalized data were used for all subsequent experiments for statistical analyses relating to FIGS. 13-18.
(§2) Basal treatment with cytokines [IL-13 (Abcam), IL-4 (PeproTech), TNF-α, IFN-γ and TGF-β1 (R&D Systems)] diluted in ALI medium started as early as day 14 post differentiation. Individual cytokines or cytokine cocktails were added to the culture medium at the desired concentrations and cells were incubated with the cytokines for a maximum of 16 days. ALI medium containing cytokines was changed every two days. Age-matched HBECs were assigned to the following treatment groups:
(§3) II Time-dependent studies: These studies were done using a concentration that ensured maximum inhibition of benzamil-sensitive Isc and TEER. HBECs were treated with respective cytokines for 2, 4, 6, 8, 10, 12, 14, or 16 days. IFN-γ, TNF-α or TGF-β1 at 1 ng/mL, IL-13 at 20 ng/mL and IL-4 at 2 ng/mL were used.
(§4) III Cytokine cocktails: were prepared using IFN-γ and TNF-α at 0.05, 0.5, 2.5, 5 and 10 ng/mL while TNF-α, IFN-γ and TGF-β1 at 1 ng/mL for each of the cytokines was added to the culture media for 7 days.
(§5) Ussing chamber experiments: Snapwells with differentiated HBECs that were incubated with cytokines or age-matched HBECs without cytokine exposure were mounted in Ussing chambers (Physiologic Instruments), and cells were either bathed in isotonic ringer solution containing 113.8 mM Na^+, 93.6 mM Cl^−, 25 mM HCO3^−, 5.2 mM K^+, 2.4 mM HPO4^−, 0.4 mM H2PO4^−, 1.2 mM Mg^2+, 1.2 mM Ca^2+, and 75 mM mannitol, or in AA-EC01. Glucose (5 mM) was added to the basal side, and chambers were bubbled with 95% O2 and 5% CO2 at 37° C. AA-EC01 contained 8 mM lysine, 8 mM tryptophan, 8 mM arginine, 8 mM glutamine, and 1.2 mM tyrosine, and AANC contained 8 mM leucine, 8 mM cysteine, 8 mM isoleucine, 8 mM aspartic acid and 8 mM glutamate (Ajinomoto), both diluted in an electrolyte solution containing 113.8 mM Na^t, 93.6 mM Cl^−, 25 mM HCO3^−, 5.2 mM K^+, 2.4 mM HPO4^−, 0.4 mM H2PO4^−, 1.2 mM Mg′, 1.2 mM Ca^2+ and 40 mM mannitol at pH 7.4 and 300 mOsm. Cell cultures were allowed to equilibrate in the Ussing chambers for 30 minutes while continuously voltage clamped to 0 mV. Basal short circuit current (Isc) and transepithelial electrical resistance (TEER) were recorded at 30-second intervals, and benzamil-sensitive Isc was calculated from the difference of basal Isc recorded after 30 minutes and Isc measured at 15 minutes after adding 6 μM of benzamil (ThermoFisher) to the apical side.
(§6) Statistical analysis: Results are presented as mean±standard error of mean (SEM). Analyses were performed with OriginPro 2018 software package. For each treatment group, values were tested for normal distribution using the Shapiro-Wilk normality test. […] The values were normalized to controls within the group, and data were pooled for comparison between groups. Kruskal-Wallis test was used for comparing the overall effect of ringer, AA-EC01 and AANC on benzamil-sensitive Isc and TEER, and Mann Whitney U test was used for pairwise comparison within the group and for comparison between basal values for each cytokine at zero ng/mL or day zero with each concentration and time period studied. P<0.05 was considered significant, and NS indicates not significant.

ENaC [1] = assay: Benzamil-sensitive Isc (ENaC activity) in differentiated HBECs, Ussing chamber; settings: for cytokine concentration that decreased benzamil-sensitive Isc: 7 days incubation
Procedure: as §1, §2, §3, §4, §5, §6

ENaC [2] = assay: ENaC current in HBEC after increasing cytokine concentrations for 7 days (FIGS. 9-11); settings: for ENaC activity with increasing cytokine concentration: 7 days (FIGS. 9, 11)
Procedure: FIG. 9: ENaC Activity in Human Bronchial Epithelial Cells after Exposure to Increasing Concentrations of TNF-α for 7 Days. Human bronchial epithelial cells (HBEC) were treated with different concentrations of TNF-α (0.00005, 0.0005, 0.005, 0.05, 0.5, 5, 50 or 500 ng/mL media) for 7 days.
FIG. 10: ENaC Activity in Human Bronchial Epithelial Cells after Exposure to Increasing Concentrations of IFN-γ for 7 Days. HBEC were treated with IFN-γ (0.00005, 0.0005, 0.005, 0.05, 0.5, 5, 50 or 500 ng/mL media) for 7 days.
FIG. 11: ENaC Activity in Human Bronchial Epithelial Cells after Exposure to Increasing Concentrations of TGF-β1 for 7 Days. HBEC were treated with TGF-β1 (0.00005, 0.0005, 0.005, 0.05, 0.5, 5, 50 or 500 ng/mL media) for 7 days.
In some embodiments, HBECs were treated with different concentrations of TNF-α ranging from 0.00005 ng/mL to 500 ng/mL TNF-α (e.g., 0.00005, 0.0005, 0.005, 0.05, 0.5, 5, 50 or 500 ng/mL TNF-α in media) for 7 days.

Substance | TEER, normalized to control (HBECs; 1 ng/mL cytokine) | cytokine concentration that increased TEER / epithelial resistance (HBECs) | benzamil-sensitive Isc, normalized to control (ENaC [1]; 1 ng/mL cytokine, day 16) | cytokine concentration that decreased benzamil-sensitive Isc (ENaC [1]) | benzamil-sensitive Isc, of baseline values (ENaC [1]; IFN-γ 5×10^−4 ng/mL, 7 days, normalized to control) | IFN-γ concentration at which ENaC current decreased relative to baseline (ENaC [2]; 7 days (FIG. 10)) | IFN-γ concentration with significant decrease in ENaC activity (ENaC [2]; 7 days (FIG. 10)) | TEER, normalized to control (maximum inhibition) (HBECs; 2 ng/mL IL-4, day 10) | benzamil-sensitive Isc, normalized to control (ENaC [1]; 2 ng/mL IL-4, day 4) | benzamil-sensitive Isc, normalized to control (maximum reduction) (ENaC [1]; 2 ng/mL IL-4, day 10) | benzamil-sensitive Isc, normalized to control (ENaC [1]; 1 ng/mL cytokine, day 4) | benzamil-sensitive Isc, normalized to control (plateau of reduction) (ENaC [1]; TNF-α around 10 ng/mL, 7 days) | ENaC activity with increasing cytokine concentration (ENaC [2]) | TEER over time (HBECs; 1 ng/mL cytokine, up to 16 days) | benzamil-sensitive Isc, normalized to control (ENaC [1]; TGF-β1 0.5 ng/mL, 7 days) | benzamil-sensitive Isc, normalized to control (ENaC [1]; TGF-β1 50 ng/mL, 7 days)
IFN-γ: type II IFN family cytokine (R&D Systems) added to HBEC culture medium | 142.5±12.3% | ≥ 0.5 ng/mL | 43.7±7.0% | > 20 ng/mL | 161.62±9.7% | > 0.05 ng/mL media | > 5 ng |  |  |  |  |  |  |  |  | 
IL-4: Th2 cytokine (PeproTech) added to HBEC culture medium |  |  |  |  |  |  |  | 37.5±2% | 59.9±9.4% | 8.6±5% |  |  |  |  |  | 
TNF-α | 132.6±9.0% |  | 39.2±2.4% | ≥ 0.05 ng/mL |  |  |  |  |  |  | 81.2±5.4% | 17.4±3.6% | concentration-dependent decrease |  |  | 
TGF-β1: Treg cytokine (R&D Systems) added to HBEC culture medium |  | ≥ 5 ng/mL | 20.3±5.8% | ≥ 0.5 ng/mL |  |  |  |  |  |  | 64.4±8.3% |  | concentration-dependent decrease | remained unaffected | 70.4±2.5% | 1.5±0.3%
